Each block holds one molecule with its values, some of them ahead of it.
Tests used:
RAP-42-OVAF2#1 MoAb = conditions: for fluorescence polarization on addition of RAP-42-OVAF2#1 MoAb: 5 ug/mL MoAb
Excerpt: The hybridoma cell line in P4G1 was cloned by limiting dilution and is designated as hybridoma cell line, RAP-42-OVAF2#1hc.

FKBP12 [1] = target: T1, FKBP12 (Homo sapiens, UniProt P62942); assay: Fluorescence polarization, tracer binding to FKBP12; conditions: for fluorescence polarization on addition of FKBP12: 0.ug FKBP12 to 1.00 mL 10 nM tracer; for fluorescence polarization before addition of FKBP12: 1.00 mL 10 nM tracer
T1 sequence (P62942 whole entry, species assumed): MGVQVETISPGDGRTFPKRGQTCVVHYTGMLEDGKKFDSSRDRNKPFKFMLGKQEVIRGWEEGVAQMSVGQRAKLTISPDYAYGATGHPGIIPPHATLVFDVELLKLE

Anti-rapamycin Antibody = assay: Capture ELISA of anti-rapamycin antibody levels in rabbit sera; type: binding; conditions: sera diluted 1:5, conjugate 0.5 ng/ml
Method: Microtiter plates (IMMUNOLON I) were coated overnight with 100 μl of goat anti-mouse antibody (10 μg/ml in 10 mM potassium phosphate buffer, pH 7.2) at 4° C. The plates were flicked and blocked with 100 μl of 1% bovine sera albumin in phosphate buffered saline overnight at 4° C. […] After flicking and washing the plates thrice with wash buffer, TMB substrate with H2O2 was added and the plates were incubated covered for 30 min. at room temperature in the dark. The optical density was read on a spectrophotometer at 450 nm.

[2] = system: rapamycin specific antibody; assay: BIAcore binding of antibody to matrix-immobilized compound; conditions: 803 resonance units (RU) of the compound immobilized on a solid matrix, EDC and NHS
Method: The following example illustrates that 803 resonance units (RU) of the compound of Example 11 can be immobilized on a solid matrix using the BIAcore's standard protocol based on EDC and NHS used in a BIAcore. […] The kinetics of association and dissociation were determined for each concentration of antibody tested (0.625, 1.25, 2.5, 5.0, 10.0 ug/ml). […] This matrix can also be used for the isolation of novel binding proteins, as practiced by one skilled in the art. […] In one approach, tissue or cell lysates containing the appropriate protease inhibitors are incubated with FKBP which has been incubated with a deprotected-rapamycin 42-ester with N-[9fluoren-9-ylmethoxy)carbonyl]glycine conjugated matrix for a sufficient time to allow binding. Various buffers are used to rinse the proteins which are nonspecifically bound.

mice = conditions: 50 μg intrasplenically in Complete Freund's Adjuvant, boost 50 μg into footpads
Method: Microtiter plates (IMMUNOLON I) were coated overnight with 100 μl of goat anti-mouse antibody (10 μg/ml in 10 mM potassium phosphate buffer, pH 7.2) at 4° C. The plates were flicked and blocked with 100 μl of 1% bovine sera albumin in phosphate buffered saline overnight at 4° C. After flicking and washing the plates thrice with 10 mM phosphate buffer, pH 7.05, 30 mM NaCl, 0.02% TRITON X-100 (polyethylene glycol tert-octylphenyl ether) and 0.004% thimerosal wash buffer, 100 μl of each mouse sera diluted with phosphate buffer solution was added to a well and incubated at room temperature for overnight.

FKBP12 [3] = target: T1, FKBP12; assay: Fluorescence polarization competition, rapamycin-fluorescein and FKBP12; type: binding
[4] = tracer 10 nM in 100 mM sodium phosphate pH 7.5

binding by RAP-42-OVAF2#1 MoAb (in words) (RAP-42-OVAF2#1 MoAb): binds specifically
fluorescence polarization on addition of FKBP12 (FKBP12 [1]): 58 mP
fluorescence polarization before addition of FKBP12 (FKBP12 [1]): 49 mP
Molecule: Secorapamycin 42-ester with Succinic Acid Conjugate with 5-Glycinylfluoresceinamine [Example 24]
fluorescence polarization before addition of RAP-42-OVAF2#1 MoAb (RAP-42-OVAF2#1 MoAb): 44 mP
fluorescence polarization on addition of RAP-42-OVAF2#1 MoAb (RAP-42-OVAF2#1 MoAb): 136 mP

Molecule: Rapamycin 31.42-Diester with Glutaric Acid Conjugate with Horseradish Peroxidase [Example 10]
Prebleed (A450) (Anti-rapamycin Antibody; Rabbit No. 81): 0.119
ΔA450 (3rd Bleed-Prebleed) (Anti-rapamycin Antibody; Rabbit No. 81): 0.713
Prebleed (A450) (Anti-rapamycin Antibody; Rabbit No. 89): 0.136
ΔA450 (3rd Bleed-Prebleed) (Anti-rapamycin Antibody; Rabbit No. 89): 0.037

Molecule: CO[C@H]1C[C@@H]2CC[C@@H](C)[C@@](O)(O2)C(=O)C(=O)N2CCCC[C@H]2C(=O)O[C@H]([C@H](C)C[C@@H]2CC[C@@H](OC(=O)CCC(=O)NCC(=O)Nc3ccc4c(c3)C(=O)OC43c4ccc(O)cc4Oc4cc(O)ccc43)[C@H](OC)C2)CC(=O)[C@H](C)/C=C(\C)[C@@H](O)[C@@H](OC)C(=O)[C@H](C)C[C@H](C)/C=C/C=C/C=C/1C [Example 23a, Rapamycin-42-ester with Succinic Acid Conjugate with 5-Glycinlfluoresceinamine]
fluorescence polarization on addition of RAP-42-OVAF2#1 MoAb (RAP-42-OVAF2#1 MoAb): 58 mP
polarization after addition of excess of RAP-42-OVAF2#1 MoAb (RAP-42-OVAF2#1 MoAb; [4]): 84 mP
fluorescence polarization on addition of FKBP12 (FKBP12 [1]): 148 mP
fluorescence polarization before addition of FKBP12 (FKBP12 [1]): 57 mP
polarization after addition of an excess of FKBP12 (FKBP12 [1]; [4]): 195 mP
polarization of tracer alone (FKBP12 [1]; tracer 10 nM in 100 mM sodium phosphate pH 7.5, no binder): 77 mP

rapamycin specific antibody bound by the matrix [2]: 1401 RU
Molecule: COC1CC2CCC(C)C(O)(O2)C(=O)C(=O)N2CCCCC2C(=O)OC(C(C)CC2CCC(OC(=O)CNC(=O)OCC3c4ccccc4-c4ccccc43)C(OC)C2)CC(=O)C(C)C=C(C)C(O)C(OC)C(=O)C(C)CC(C)C=CC=CC=C1C (stereo not shown) [Example 11]

Molecule: Rapamycin 42-Ester with 3-[3-(4-iminobutylthio)succinimidyl]phenacyl-glycine Conjugate with Horseradish Peroxidase [Example 12]
ΔA450 (3rd Bleed-Prebleed) (Anti-rapamycin Antibody; Rabbit No. 81): 0.217
ΔA450 (3rd Bleed-Prebleed) (Anti-rapamycin Antibody; Rabbit No. 89): 0.026

Molecule: Rapamycin 31.42-Diester with Glutaric Acid Conjugate with Keyhole Limpet Hemocyanin [Example 8]
mice with antibodies reactive for compound of Example 10 (mice): five of the five

fluorescence polarization in the presence of analyte (FKBP12 [3]; 100 nM analyte, 128 mP in the absence of analyte, 500 uL 0.02 ug/mL FKBP12 + 500 μL 20 nM rapamycin-fluorescein): 122 mP
effect on binding of rapamycin-fluorescein to FKBP12 (in words) (FKBP12 [3]; analyte 0 to 100 nM): no effect
effect on binding of secorapamycin fluorescein derivative to RAP-42-OVAF2#1 (in words) (RAP-42-OVAF2#1; analyte 0 to 100 nM): inhibits binding
Molecule: CO[C@@H](C[C@@H]1CC[C@@H](C)[C@](O)(C(=O)C(=O)N2CCCC[C@H]2C(=O)[O-])O1)/C(C)=C/C=C/C=C/[C@@H](C)C[C@@H](C)C(=O)[C@H](OC)[C@H](O)/C(C)=C/[C@@H](C)C(=O)/C=C/[C@H](C)C[C@@H]1CC[C@@H](O)[C@H](OC)C1.[Na+] [secorapamycin]
fluorescence polarization in the presence of analyte (RAP-42-OVAF2#1; 100 nM analyte, 124 mP in the absence of analyte, 500 μL 10 μg/mL MoAb + 500 μL 20 nM secorapamycin-fluorescein): 74 mP

B1: Rapamycin 42 Ester with (N-(3-carboxyphenyl)-3-thiosuccinimidyl)-glycine Conjugate with Horseradish Peroxidase (conjugate, UniProt P00433 31-338, looked up)
Peroxidase C1A: QLTPTFYDNSCPNVSNIVRDTIVNELRSDPRIAASILRLHFHDCFVNGCDASILLDNTTSFRTEKDAFGNANSARGFPVIDRMKAAVESACPRTVSCADLLTIAAQQSVTLAGGPSWRVPLGRRDSLQAFLDLANANLPAPFFTLPQLKDSFRNVGLNRSSDLVALSGGHTFGKNQCRFIMDRLYNFSNTGLPDPTLNTTYLQTLRGLCPLNGNLSALVDFDLRTPTIFDNKYYVNLEEQKGLIQSDQELFSSPNATDTIPLVRSFANSTQTFFNAFVEAMDRMGNITPLTGTQGQIRLNCRVVNSNS
modifications: rapamycin 42-ester hapten conjugate
ΔA450 (3rd Bleed-Prebleed) (Anti-rapamycin Antibody; Rabbit No. 81): 0.114
ΔA450 (3rd Bleed-Prebleed) (Anti-rapamycin Antibody; Rabbit No. 89): 0.020

Source: patent publication US6541612B2 (Wyeth, priority 1993, dated 2003)
